Assay results: patent publication US12226494B2, “Pharmaceutical compositions comprising Gd-complexes and polyarylene additives” (BRACCO IMAGING S.P.A., priority 2018, dated 2025)
“Also recorded” adds a separate entry of the source.

Columns and labels:
[1] = Proton Relaxation Enhancement (PRE) titration of Gd-complexes (GBCA) with HPTS: binding parameters Ka and Rb; settings: for Ka: interaction of GBCA (1 mM) with HPTS, Hepes/NaCl; for Ka / Rb: T = 25° C., 21.5 MHz, pH = 7.0 ± 0.1; for Rb: relaxivity of the adduct with HPTS at saturation
Protocol: The binding parameters Ka and Rb between the investigated Gd-complexes and the polyarylene additives were calculated by using the well-established Proton Relaxation Enhancement (PRE) technique.
This method consists in measuring the variation in the longitudinal proton Relaxation Rates (R1=1/T1) of the paramagnetic solutions upon increasing the concentration of the interacting substrate. By this method, the binding parameters Ka (the affinity constant) and Rb (the relaxivity of the resulting adducts at saturation) can be determined. To this end, solutions of the Gd-complexes (1 mM) were titrated with the polyarylenes compounds and non-hydrophobic reference compounds (in the concentration range 1-40 mM, leading to the saturation of the contrast agent), at 21.5 MHz and 298 K, in Hepes/NaCl buffer solution ([hepes]=3.8 mM, [NaCl]=150 mM) at pH 7.0-7.2.
Relaxation rates were measured on a Stelar SpinMaster Relaxometer (Stelar, Mede, PV, It) operating at 21.5 MHz by means of the inversion recovery method (16 experiments, two scans). The reproducibility of the T data was ±0.5%.
Analysis of data was carried out by using origin 9.0 software.

[2] = Longitudinal relaxivity r1p of the free Gd-complex (relaxometry, 21.5 MHz); format: physicochemical; settings: T = 25° C., B0 = 21.5 MHz, pH = 7.0 ± 0.1
Protocol: (§1) This method consists in measuring the variation in the longitudinal proton Relaxation Rates (R1=1/T1) of the paramagnetic solutions upon increasing the concentration of the interacting substrate. […] To this end, solutions of the Gd-complexes (1 mM) were titrated with the polyarylenes compounds and non-hydrophobic reference compounds (in the concentration range 1-40 mM, leading to the saturation of the contrast agent), at 21.5 MHz and 298 K, in Hepes/NaCl buffer solution ([hepes]=3.8 mM, [NaCl]=150 mM) at pH 7.0-7.2.
(§2) The reproducibility of the T data was ±0.5%.

[3] = Proton Relaxation Enhancement (PRE) titration of ProHance with polyarylenes and reference compounds: Ka and Rb; format: binding; settings: for Ka: interaction with ProHance (1 mM), Hepes/NaCl; for Ka / Rb: T = 25° C., 21.5 MHz, pH = 7.0 ± 0.1; for Rb/r1p: adduct with ProHance relative to free ProHance; for Rb: relaxivity of the adduct with ProHance at saturation
Protocol: as §1, §2
The least-squares fit of the R1 versus substrate concentration binding isotherms (FIGS. 4 and 5) enabled us to calculate the affinity constants and the relaxivities of the adducts reported in tables 2 and 3 below.
Other aromatic-containing structures, beside HPTS, were considered for the interaction.

[4] = 1H NMRD profiles of ProHance free and in the presence of 40 mM HPTS; format: physicochemical; settings: 1 mM ProHance with 40 mM HPTS vs ProHance as-such; 298 K; 0.01-70 MHz
Protocol: In order to investigate if the enhancement of the relaxivity is maintained at different magnetic field strength, the proton 1/T1 NMRD profiles were measured at 298 K on 1 mM ProHance solutions in the absence and in the presence of 40 mM HPTS. Measurements were carried out on a fast field-cycling Stelar relaxometer over a continuum of magnetic field strengths from 0.00024 to 0.47 T (corresponding to 0.01-20 MHz proton Larmor Frequency). The relaxometer operates under computer control with an absolute uncertainty in 1/T1 of ±0.1%. Additional data points in the range 21.5-70 MHz were obtained on the Stelar SpinMaster relaxometer. The concentration of the solutions used for the relaxometric characterization was determined according to a previously reported relaxometric method (Arena, F. et al, Bioconjugate Chem. 2011, 22, 2625-2635).
The analysis provides the evolution of the relaxivity of the two species as a function of the magnetic field.

[5] = tested on: TS/A breast cancer cells transplanted on Balb/c mice; settings: T1w MRI at 7.1T, injection of 0.15 mmol/Kg ProHance alone or with 0.45 mmol/Kg HPTS
Protocol: Mice were injected with 0.15 mmoles/kg of ProHance e 0.45 mmoles/kg of HPTS (corresponding to 150-220 μL for 20-30 g mice).
In vivo experiments were carried out on xenograpt murine models of cancer.
Female 10-12 weeks Balb/c mice (Charles River Laboratories, Calco, Italy) were inoculated subcutaneously in the flank with 0.1 mL of a suspension containing 5×10^5 TS/A mammary breast cancer cell lines (Nanni P. et al. Clin. Exp. Metastasis 1983, 1, 373-380).
For MRI acquisition, mice were anesthetized by intramuscular injection of a mixture of 20 mg/kg tiletamine/zolazepam (Zoletil 100, Virbac, Milan, Italy) 20 mg/kg plus 5 mg/kg xylazine (Rompun; Bayer, Milan, Italy). A permanent vein access was obtained by inserting a PE10 catheter into the tail vein.
MR images have been acquired, pre and post injection of GBCA, at 7.1T by using Bruker Avance 300 spectrometer equipped with a Micro 2.5 microimaging probe. Mice were injected with 0.15 mmol/Kg of ProHance followed (after 1 h when the wash-out of the GBCA was considered complete) by the injection of a mixture of ProHance and HPTS (0.15 mmol/Kg ProHance and 0.45 mmol/Kg HPTS).
Tumor volume and morphology were determined by multislices anatomical T2w images. A ROI was manually drawn and the slice volume was calculated. […]

Structure (SMILES)	Ka [1]	Ka [3]	Rb/r1p [3]	Rb [3]	further results
CNC(=O)CN(CCN(CCN(CC(=O)[O-])CC(=O)NC)CC(=O)[O-])CC(=O)[O-].[Gd+3] [Omniscan]	no binding is observed; also recorded: No interaction	–	–	–	–
O=C(O)CN1CCN(CC(=O)O)CCN(CC(=O)O)CCN(CC(=O)O)CC1 [Dotarem]	174 M⁻¹	–	–	–	Rb [1]: 7.4 mM⁻¹ s⁻¹; r1p [2]: 4.2 mM⁻¹ s⁻¹
O=S(=O)(O)c1ccc(O)cc1 [HBSA, 4-Hydroxybenzenesulfonic acid]	–	No binding; also recorded: No interaction	–	–	–
CNC[C@H](O)[C@@H](O)[C@H](O)[C@H](O)CO.CNC[C@H](O)[C@@H](O)[C@H](O)[C@H](O)CO.O=C([O-])CN(CCN(CC(=O)[O-])CC(=O)O)CCN(CC(=O)O)C(COCc1ccccc1)C(=O)[O-].[Gd+3] (stereo not shown) [MultiHance, gadobenate dimeglumine]	no binding is observed; also recorded: No interaction	–	–	–	–
O=C([O-])CN1CCNCCN(CC(=O)[O-])CCN(CC(=O)[O-])CC1.[Gd+3] [Gd-DO3A]	246 M⁻¹	–	–	–	Rb [1]: 9.5 mM⁻¹ s⁻¹; r1p [2]: 6.2 mM⁻¹ s⁻¹
O=C(O)CN1CCN(CC(=O)O)CCN(C(CO)C(O)CO)CCN(CC(=O)O)CC1 (stereo not shown) [Gadovist, Gadobutrol]	1157 M⁻¹	–	–	–	Rb [1]: 7.9 mM⁻¹ s⁻¹; r1p [2]: 5.0 mM⁻¹ s⁻¹
O=S(=O)(O)c1cc(S(=O)(=O)O)c2ccc3c(S(=O)(=O)O)cc(S(=O)(=O)O)c4ccc1c2c43 [PTS, 1,3,6,8 Pyrenetetrasulfonic acid]	–	177 M⁻¹	1.6	7.3 mM⁻¹ s⁻¹	–
O=S(=O)(O)c1ccc2cc(S(=O)(=O)O)ccc2c1 [2,6 NDS, 2,6 Naphthalene disulphonic acid]	–	94.4 M⁻¹	1.2	5.4 mM⁻¹ s⁻¹	–
Nc1cc(S(=O)(=O)O)c2ccc3c(S(=O)(=O)O)cc(S(=O)(=O)O)c4ccc1c2c43 [APTS, 8-Aminopyrene-1,3,6 trisulfonic acid]	–	319 M⁻¹	1.6	7.6 mM⁻¹ s⁻¹	–
O=S(=O)(O)c1cc(O)c2ccc3c(S(=O)(=O)O)cc(S(=O)(=O)O)c4ccc1c2c34 [HPTS, 8-Hydroxypyrene-1,3,6-trisulfonic acid]	–	628 M⁻¹	1.5	6.9 mM⁻¹ s⁻¹	–
O=C(O)COc1cc(S(=O)(=O)O)c2ccc3c(S(=O)(=O)O)cc(S(=O)(=O)O)c4ccc1c2c43 [CMPTS, 8-Carboxymethoxypyrene-1,3,6-trisulfonic acid]	–	94.2 M⁻¹	1.8	8.5 mM⁻¹ s⁻¹	–
O=S(=O)(O)c1cccc2c(S(=O)(=O)O)cccc12 [1,5 NDS, 1,5 Naphthalene disulphonic acid]	–	45.5 M⁻¹	1.4	6.3 mM⁻¹ s⁻¹	–
CC(O)CN1CCN(CC(=O)O)CCN(CC(=O)O)CCN(CC(=O)O)CC1 (stereo not shown) [ProHance]	628 M⁻¹	–	–	–	improvement of the relaxivity as a function of the magnetic field (NMRD profile) [4]: maintained over the whole range of magnetic field; mean signal enhancement, Enh %, in the tumor ROI [5]: 53%; improvement of the relaxivity shown by the free complex ([1]; 20% of the complex in the form of a non-covalent adduct with HPTS): about 10%; improvement of the relaxivity shown by the free complex ([1]; 60% of the complex in the form of a non-covalent adduct with HPTS): ~30%; improvement of the relaxivity shown by the free complex ([1]; 99% of the complex in the form of a non-covalent adduct with HPTS): ~50%; improvement of relaxivity in comparison with Prohance as-such ([1]; molar ratio 1:3 of Prohance to HTPS): about 30%; Rb [1]: 6.9 mM⁻¹ s⁻¹; r1p [2]: 4.6 mM⁻¹ s⁻¹
COc1cc(S(=O)(=O)O)c2ccc3c(S(=O)(=O)O)cc(S(=O)(=O)O)c4ccc1c2c43 [MPTS, 8-Methoxy-1,3,6 pyrene trisulfonic acid]	–	514 M⁻¹	1.4	6.5 mM⁻¹ s⁻¹	–
CNC[C@H](O)[C@@H](O)[C@H](O)[C@H](O)CO.CNC[C@H](O)[C@@H](O)[C@H](O)[C@H](O)CO.O=C([O-])CN(CCN(CC(=O)[O-])CC(=O)O)CCN(CC(=O)[O-])CC(=O)O.[Gd+3] [Magnevist]	no binding is observed; also recorded: No interaction	–	–	–	–
O=S(=O)(O)c1cc(S(=O)(=O)O)c2ccc3c(O)cc(O)c4ccc1c2c43 [HPDS, 6,8-Dihydroxypyrene-1,3-disulfonic acid]	–	124 M⁻¹	2.4	10.9 mM⁻¹ s⁻¹	–
